# ChEMBL document CHEMBL1135081, “Insertion of 2-carboxysuccinate and tricarballylic acid fragments into cyclic-pseudopeptides: new antagonists for the human tachykinin NK-2 receptor” (Bioorg Med Chem Lett, 2002)
# Legend:
# Substance-K receptor [1] = target: T1, Substance-K receptor (Homo sapiens, UniProt P21452); assay: Displacement of [125I]NKA from human Tachykinin receptor 2 expressed in CHO cells; assay type: cell-based
# T1 sequence (P21452 whole entry): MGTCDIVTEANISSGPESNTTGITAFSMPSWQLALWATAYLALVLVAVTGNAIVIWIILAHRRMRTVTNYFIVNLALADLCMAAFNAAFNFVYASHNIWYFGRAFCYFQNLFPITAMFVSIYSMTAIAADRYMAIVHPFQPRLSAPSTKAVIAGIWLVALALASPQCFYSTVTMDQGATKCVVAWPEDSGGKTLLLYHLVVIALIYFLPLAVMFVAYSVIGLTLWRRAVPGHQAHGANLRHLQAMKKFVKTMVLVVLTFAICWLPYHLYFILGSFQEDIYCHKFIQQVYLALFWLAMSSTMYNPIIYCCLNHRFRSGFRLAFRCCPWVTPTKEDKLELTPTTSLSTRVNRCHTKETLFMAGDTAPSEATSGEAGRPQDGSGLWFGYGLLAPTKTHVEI
# Substance-K receptor [2] = target: T2, Substance-K receptor (Oryctolagus cuniculus, UniProt P79218); assay: In vitro functional activity towards Neurokinin NK2 receptor on isolated rabbit urinary bladder (RUB); settings: for Kb: read-out: pA2 (converted)
# T2 sequence (P79218 whole entry): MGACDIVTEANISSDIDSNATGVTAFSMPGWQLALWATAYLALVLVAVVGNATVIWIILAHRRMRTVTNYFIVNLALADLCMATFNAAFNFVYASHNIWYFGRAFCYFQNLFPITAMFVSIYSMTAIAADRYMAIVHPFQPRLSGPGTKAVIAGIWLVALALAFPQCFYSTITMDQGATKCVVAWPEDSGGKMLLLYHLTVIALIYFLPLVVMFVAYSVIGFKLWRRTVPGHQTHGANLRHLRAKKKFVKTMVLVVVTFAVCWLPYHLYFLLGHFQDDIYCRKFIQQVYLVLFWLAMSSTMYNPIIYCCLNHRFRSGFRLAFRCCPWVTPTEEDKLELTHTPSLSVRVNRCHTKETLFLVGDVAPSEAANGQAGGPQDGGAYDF
Compound,Ki (Substance-K receptor [1]),pA2 (Substance-K receptor [2]),Kb (Substance-K receptor [2])
"O=C1CCC(=O)N[C@@H](Cc2c[nH]c3ccccc23)C(=O)NC(Cc2ccccc2)C(=O)N[C@H](Cc2ccccc2)CN1 (single isomer, unassigned)",–,–,5.01 nM
"O=C(C[C@@H]1CC(=O)N[C@@H](Cc2c[nH]c3ccccc23)C(=O)NC(Cc2ccccc2)C(=O)NC(Cc2ccccc2)CNC1=O)NC1OC(CO)C(O)C(O)C1O (single isomer, unassigned)",10 nM,–,6.31 nM
"O=C1CC(C(=O)N2CCC(N3CCCCC3)CC2)C(=O)NCC(Cc2ccccc2)NC(=O)C(Cc2ccccc2)NC(=O)[C@H](Cc2c[nH]c3ccccc23)N1 (single isomer, unassigned; 8e)",0.0501 nM,–,0.794 nM
CC(=O)NC1C(NC(=O)C[C@H]2CC(=O)N[C@@H](Cc3c[nH]c4ccccc34)C(=O)N[C@H](Cc3ccccc3)C(=O)N[C@H](Cc3ccccc3)CNC2=O)OC(CO)C(O)C1O (some centres not stated),6.31 nM,–,7.94 nM
O=C1C[C@@H](CC(=O)N2CCC(N3CCCCC3)CC2)C(=O)NC[C@@H](Cc2ccccc2)NC(=O)[C@@H](Cc2ccccc2)NC(=O)[C@H](Cc2c[nH]c3ccccc23)N1,1.58 nM,–,2.51 nM
CC(=O)NC1C(NC(=O)C2CC(=O)N[C@@H](Cc3c[nH]c4ccccc34)C(=O)N[C@H](Cc3ccccc3)C(=O)N[C@H](Cc3ccccc3)CNC2=O)OC(CO)C(O)C1O (some centres not stated),2.51 nM,–,3.98 nM
"O=C1CC(C(=O)N2CCOCC2)C(=O)NCC(Cc2ccccc2)NC(=O)C(Cc2ccccc2)NC(=O)[C@H](Cc2c[nH]c3ccccc23)N1 (single isomer, unassigned)",0.126 nM,–,0.631 nM
O=C1C[C@H](CC(=O)N2CCC(N3CCCCC3)CC2)C(=O)NC[C@@H](Cc2ccccc2)NC(=O)[C@@H](Cc2ccccc2)NC(=O)[C@H](Cc2c[nH]c3ccccc23)N1,5.01 nM,–,3.98 nM
"O=C1C[C@@H](CC(=O)N2CCOCC2)C(=O)NCC(Cc2ccccc2)NC(=O)C(Cc2ccccc2)NC(=O)[C@H](Cc2c[nH]c3ccccc23)N1 (single isomer, unassigned)",0.631 nM,–,1 nM

# Other lines, results leading:
Ki (Substance-K receptor [1]),pA2 (Substance-K receptor [2]),Kb (Substance-K receptor [2]),Compound
0.316 nM,9.1,–,"O=C1CC(C(=O)N2CCC(N3CCCCC3)CC2)C(=O)NCC(Cc2ccccc2)NC(=O)C(Cc2ccccc2)NC(=O)[C@H](Cc2c[nH]c3ccccc23)N1 (single isomer, unassigned; 8f)"
7.94 nM,–,6.31 nM,CC(=O)NC1C(NC(=O)C[C@@H]2CC(=O)N[C@@H](Cc3c[nH]c4ccccc34)C(=O)N[C@H](Cc3ccccc3)C(=O)N[C@H](Cc3ccccc3)CNC2=O)OC(CO)C(O)C1O (some centres not stated)
3.98 nM,–,3.16 nM,"O=C1CC(C(=O)NC(CO)CO)C(=O)NCC(Cc2ccccc2)NC(=O)C(Cc2ccccc2)NC(=O)[C@H](Cc2c[nH]c3ccccc23)N1 (single isomer, unassigned)"
1.58 nM,–,1 nM,O=C1CC(C(=O)N2CCN(CCOCCO)CC2)C(=O)NC[C@@H](Cc2ccccc2)NC(=O)[C@@H](Cc2ccccc2)NC(=O)[C@H](Cc2c[nH]c3ccccc23)N1 (some centres not stated)
6.31 nM,–,3.16 nM,CN(C)CCNC(=O)C[C@@H]1CC(=O)N[C@@H](Cc2c[nH]c3ccccc23)C(=O)N[C@H](Cc2ccccc2)C(=O)N[C@H](Cc2ccccc2)CNC1=O
